The record followed here is patent US8865706B2, “Heteroaryl-substituted hexahydropyrano[3,4-d][1,3]thiazin-2-amine compounds” (Pfizer Inc., priority 2013, dated 2014).

Broadly, the IC50 is the concentration that inhibits the measured activity by half. Read a low IC50 as higher potency.

One assay addresses BACE1 enzyme (Homo sapiens (Human), UniProt P56817). In words: BACE1 Cell-Free Assay (fluorescence polarization, cleavage of synthetic APP substrate). It is filed as biochemical. As to conditions: average of 2 determinations; values marked b: geometric mean of 3-9 determinations. An excerpt: This assay measures the inhibition of the beta-secretase enzyme as it cleaves a non-native peptide.
A synthetic APP substrate that can be cleaved by beta-secretase having N-terminal biotin and made fluorescent by the covalent attachment of Oregon Green at the Cys residue is used to assay beta-secretase activity in the presence or absence of the inhibitory compounds. […] The BACE1 enzyme is affinity purified material from conditioned media of CHO-K1 cells that have been transfected with a soluble BACE construct (BACE1deltaTM96His). Compounds are incubated in a ½ log dose response curve from a top concentration of 100 μM with BACE1 enzyme and the biotinylated fluorescent peptide in 384-well black plates (Thermo Scientific #4318). BACE1 is at a final concentration of 0.1 nM with a final concentration of peptide substrate of 150 nM in a reaction volume of 30 μL assay buffer [100 mM sodium acetate, pH 4.5 (brought to pH with acetic acid), and 0.001% Tween-20]. Plates are covered and incubated for 3 hours at 37° C. The reaction is stopped with the addition of 30 μL of 1.5 μM Streptavidin (Pierce, #21125). After a 10 minute incubation at room temperature, plates are read on a PerkinElmer EnVision for fluorescence polarization (Ex485 nm/Em530 nm). The activity of the beta-secretase enzyme is detected by changes in the fluorescence polarization that occur when the substrate is cleaved by the enzyme.
(In fluorescence polarisation assays a small probe gives low polarisation when free and higher when bound to something large.)

Assay [1] concerns sAPPβ levels in H4 human neuroglioma cells over-expressing the wild-type human APP695. In words: Whole Cell Assay (In Vitro sAPPb Assay). It is filed as cell-based. As to conditions: Homo sapiens, 18 hours treatment, average of 2 determinations, values marked b: geometric mean of 3-9 determinations. Here is the method: Whole Cell Assay (In Vitro sAPPb Assay):
H4 human neuroglioma cells over-expressing the wild-type human APP695 are treated for 18 hours with compound in a final concentration 1% DMSO. sAPPβ levels are measured using TMB-ELISA with capture APP N-terminal antibody (Affinity BioReagents, OMA1-03132), wild-type sAPPβ specific reporter p192 (Elan), and tertiary anti rabbit-HRP (GE Healthcare).

BACE1 enzyme, sequence (P56817 46-457): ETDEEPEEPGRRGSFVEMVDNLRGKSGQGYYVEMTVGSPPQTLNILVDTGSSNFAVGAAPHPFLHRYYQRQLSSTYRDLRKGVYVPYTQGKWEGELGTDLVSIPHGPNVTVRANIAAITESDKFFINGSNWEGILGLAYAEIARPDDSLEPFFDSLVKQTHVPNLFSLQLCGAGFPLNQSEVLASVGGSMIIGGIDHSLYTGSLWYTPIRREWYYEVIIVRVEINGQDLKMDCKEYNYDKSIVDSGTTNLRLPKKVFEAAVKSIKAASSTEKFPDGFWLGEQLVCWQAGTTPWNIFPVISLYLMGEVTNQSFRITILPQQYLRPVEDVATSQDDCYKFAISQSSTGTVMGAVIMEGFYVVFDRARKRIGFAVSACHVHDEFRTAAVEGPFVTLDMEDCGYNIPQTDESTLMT

On to `NC1=N[C@@]2(c3ccc(F)cc3F)CO[C@@H](c3ccc4nccn4c3)C[C@H]2CS1` [Example 28, (4aR,6R,8aS)-8a-(2,4-Difluorophenyl)-6-(imidazo[1,2-a]pyridin-6-yl)-4,4a,5,6,8,8a-hexahydropyrano[3,4-d][1,3]thiazin-2-amine], for which the results for the half-inhibitory concentration (IC50) (against BACE1 enzyme; in assay [1]) were 2.15 µM and 0.0155 µM, respectively.

As to `CCOc1cc([C@H]2C[C@H]3CSC(N)=N[C@@]3(c3ccc(F)cc3F)CO2)nn1C` [Example 21, (4aR,6R,8aS)-8a-(2,4-Difluorophenyl)-6-(5-ethoxy-1-methyl-1H-pyrazol-3-yl)-4,4a,5,6,8,8a-hexahydropyrano[3,4-d][1,3]thiazin-2-amine], the IC50 against BACE1 enzyme turned out to be 5.4 µM; in assay [1], 0.123 µM.

As to `COc1cncc([C@H]2C[C@H]3CSC(N)=N[C@@]3(c3ccc(F)cc3F)CO2)c1` [Example 26, (4aR,6R,8aS)-8a-(2,4-Difluorophenyl)-6-(5-methoxypyridin-3-yl)-4,4a,5,6,8,8a-hexahydropyrano[3,4-d][1,3]thiazin-2-amine], the 50% inhibitory concentration (IC50) against BACE1 enzyme is 1.25 µM; in assay [1], 0.0626 µM.

Consider `Cn1nc([C@H]2C[C@H]3CSC(N)=N[C@@]3(c3ccc(F)cc3F)CO2)cc1F` [Example 1, (4aR,6R,8aS)-8a-(2,4-difluorophenyl)-6-(5-fluoro-1-methyl-1H-pyrazol-3-yl)-4,4a,5,6,8,8a-hexahydropyrano[3,4-d][1,3]thiazin-2-amine], for which the IC50 at BACE1 enzyme is 0.0837 µM; in assay [1], 0.00378 µM.

As for `Cc1ncc([C@H]2C[C@H]3CSC(N)=N[C@@]3(c3ccc(F)cc3F)CO2)cn1` [Example 17, (4aR,6R,8aS)-8a-(2,4-difluorophenyl)-6-(2-methylpyrimidin-5-yl)-4,4a,5,6,8,8a-hexahydropyrano[3,4-d][1,3]thiazin-2-amine], the half-inhibitory concentration (IC50) on BACE1 enzyme turned out to be 1.4 µM; in assay [1], 0.0603 µM.

With `C[C@H]1SC(N)=N[C@@]2(c3ccc(F)cc3F)CO[C@@H](c3cnn(C)c3)C[C@@H]12` [Example 16, (4R,4aR,6R,8aS)-8a-(2,4-Difluorophenyl)-4-methyl-6-(1-methyl-1H-pyrazol-4-yl)-4,4a,5,6,8,8a-hexahydropyrano[3,4-d][1,3]thiazin-2-amine], the IC50 was determined as 0.0246 µM on BACE1 enzyme and 0.00284 µM in assay [1].
